Test results: patent US9133207B2, “Tetrandrine derivatives with substituted 5-carbon, preparation method and use thereof” (Hangzhou Bensheng Pharmaceutical Co., Ltd., priority 2011, dated 2015)
Values after ≈ are worked out from the molar mass of the structure shown.

Tests used:
[1] = tested on: Jurkat (acute lymphoblastic leukemia, ALL); test: Leukemia cell growth inhibition, MTT, 72 h (Example 5); type: cell-based, human; details: for IC50 / IC90: Homo sapiens, Jurkat, 72 h, MTT
Summary of the method: (§1)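 RPMI 1640 + 10% FBS, 6000 cells/well; tetrandrine derivatives at various concentrations; 37° C, 5% CO2, 72 h; viability by MTT.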

[2] = tested on: H9 (acute lymphoblastic leukemia, ALL); test: as above; type: cell-based, human; details: for IC50 / IC90: Homo sapiens, 72 h, MTT
Summary of the method: as §1

[3] = tested on: Kasumi-1 (acute myeloid leukemia M2 type, AML-M2); test: as above; type: cell-based, human; details: Homo sapiens, Kasumi 1
Summary of the method: as §1

[4] = tested on: NB4 (acute promyelocytic leukemia, AML); test: as above; type: cell-based, human; details: Homo sapiens; 72 h, MTT
Summary of the method: as §1

[5] = tested on: K562/adr (drug-resistant, chronic myeloid leukemia, CML); test: as above; type: cell-based, human; details: Homo sapiens, K562/Adr; 72 h, MTT
Summary of the method: as §1

[6] = tested on: RPMI8226 (multiple myeloma); test: Multiple myeloma cell growth inhibition, MTT, 72 h (Example 6); type: cell-based, human; details: Homo sapiens, RPMI-8226; 72 h, MTT, RPMI8226
Summary of the method: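 Viability was read by MTT after 72 h of compound exposure at 37 °C, 5% CO2. Each well held 6000 RPMI8226 cells in 1640 medium containing 10% fetal bovine serum, with derivatives added at various concentrations.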

PC-3 (prostate cancer) = test: Solid tumor cell growth inhibition, MTT, 72 h (Example 7); type: cell-based, human; details: for IC50 / IC90: Homo sapiens, 72 h, MTT, PC-3
Summary of the method: (§2)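 4000 cells/well; DMEM high glucose + 10% FBS; 37 °C, 5% CO2; 24 h pre-culture; tetrandrine derivatives, varied conc., 72 h; MTT readout; viability % vs untreated control = 100%.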

[7] = tested on: PANC-1 (pancreatic cancer); test: as above; type: cell-based, human; details: for IC50 / IC90: Homo sapiens, 72 h, MTT, PANC-1
Summary of the method: as §2

[8] = tested on: Hep-2 (laryngeal carcinoma); test: as above; type: cell-based, human; details: Homo sapiens; 72 h, MTT, Hep 2
Summary of the method: as §2

MG63 (osteosarcoma) = test: as above; type: cell-based, human; details: Homo sapiens; 72 h, MTT, MG-63
Summary of the method: as §2

[9] = tested on: CaES-17 (esophageal cancer cell); test: as above; type: cell-based, human; details: Homo sapiens, CaEs17; 72 h, MTT, CAES-17
Summary of the method: as §2

[10] = tested on: RKO (human colon adenocarcinoma cell); test: as above; type: cell-based; details: for IC50 / IC90: Homo sapiens, 72 h, MTT, RKO
Summary of the method: as §2

A549 (human lung cancer) = test: as above; type: cell-based; details: Homo sapiens; 72 h, MTT, A549
Summary of the method: as §2

[11] = tested on: MGC 803 (human gastric cancer cell); test: as above; type: cell-based; details: Homo sapiens
Summary of the method: as §2

[12] = tested on: SK-OV-3 (ovarian cancer cell); test: as above; type: cell-based; details: Homo sapiens
Summary of the method: as §2

[13] = tested on: U87 MG (malignant glioma cell); test: as above; type: cell-based; details: Homo sapiens, U-87 MG
Summary of the method: as §2

[14] = tested on: Huh7 (human liver cancer cell); test: as above; type: cell-based; details: Homo sapiens; 72 h, MTT, Huh-7
Summary of the method: as §2

[15] = tested on: Hela (human cervical cancer cell); test: as above; type: cell-based; details: Homo sapiens; 72 h, MTT, Hela
Summary of the method: as §2

[16] = tested on: CNE (nasopharyngeal carcinoma cell); test: as above; type: cell-based; details: Homo sapiens
Summary of the method: as §2

[17] = tested on: Becap37 (human breast cancer cell); test: as above; type: cell-based; details: Homo sapiens; 72 h, MTT, Becap-37
Summary of the method: as §2

COc1ccc2cc1Oc1ccc(cc1)C[C@H]1c3cc(c(OC)cc3CCN1C)Oc1c(OC)c(OC)c(CN3CCN(C)CC3)c3c1[C@H](C2)N(C)CC3 [BS-TE-360]
IC50 [1]: 0.5 µg/mL (≈ 0.68 µM) | IC90 [1]: 4.5 µg/mL (≈ 6.12 µM) | anti-Jurkat activity increase over tetrandrine ([1]; compared with tetrandrine): ~4 fold | IC50 [2]: 0.22 µg/mL (≈ 0.299 µM) | IC90 [2]: 1.71 µg/mL (≈ 2.33 µM) | anti-H9 activity increase over tetrandrine ([2]; compared with tetrandrine): ~12 fold | IC50 [3]: 0.41 µg/mL (≈ 0.558 µM) | IC90 [3]: 2.28 µg/mL (≈ 3.1 µM) | IC50 [4]: 0.5 µg/mL (≈ 0.68 µM) | IC90 [4]: 1.4 µg/mL (≈ 1.9 µM) | IC50 [5]: 0.33 µg/mL (≈ 0.449 µM) | IC90 [5]: 2.4 µg/mL (≈ 3.27 µM) | IC50 [6]: 0.05 µg/mL (≈ 0.068 µM) | IC90 [6]: 1.5 µg/mL (≈ 2.04 µM) | IC50 (PC-3 (prostate cancer)): 1.85 µg/mL (≈ 2.52 µM) | IC90 (PC-3 (prostate cancer)): 2.5 µg/mL (≈ 3.4 µM) | IC50 [7]: 1.88 µg/mL (≈ 2.56 µM) | IC90 [7]: 9.54 µg/mL (≈ 13 µM) | IC50 [8]: 2.4 µg/mL (≈ 3.27 µM) | IC90 [8]: 9.39 µg/mL (≈ 12.8 µM) | IC50 (MG63 (osteosarcoma)): 0.8 µg/mL (≈ 1.09 µM) | IC90 (MG63 (osteosarcoma)): 1.9 µg/mL (≈ 2.59 µM) | IC50 [9]: 1.75 µg/mL (≈ 2.38 µM) | IC90 [9]: 10.5 µg/mL (≈ 14.2 µM) | IC50 [10]: 0.12 µg/mL (≈ 0.163 µM) | IC90 [10]: 1.02 µg/mL (≈ 1.39 µM) | anti-RKO activity increase over tetrandrine ([10]; compared with tetrandrine): 22 fold | IC50 (A549 (human lung cancer)): 1.7 µg/mL (≈ 2.31 µM) | IC90 (A549 (human lung cancer)): 9.2 µg/mL (≈ 12.5 µM) | IC50 [11]: 0.8 µg/mL (≈ 1.09 µM) | IC90 [11]: 5.17 µg/mL (≈ 7.03 µM) | IC50 [12]: 1.62 µg/mL (≈ 2.2 µM) | IC90 [12]: 3.22 µg/mL (≈ 4.38 µM) | IC50 [13]: 0.33 µg/mL (≈ 0.449 µM) | IC90 [13]: 1.55 µg/mL (≈ 2.11 µM) | IC50 [14]: 0.93 µg/mL (≈ 1.27 µM) | IC90 [14]: 2.4 µg/mL (≈ 3.27 µM) | IC50 [15]: 1.2 µg/mL (≈ 1.63 µM) | IC90 [15]: 6 µg/mL (≈ 8.16 µM) | IC50 [16]: 0.64 µg/mL (≈ 0.871 µM) | IC90 [16]: 3.55 µg/mL (≈ 4.83 µM) | IC50 [17]: 1.2 µg/mL (≈ 1.63 µM) | IC90 [17]: 3.7 µg/mL (≈ 5.03 µM)

COc1ccc2cc1Oc1ccc(cc1)C[C@H]1c3cc(c(OC)cc3CCN1C)Oc1c(OC)c(OC)c(CN(C)[C@@H](C)c3ccccc3)c3c1[C@H](C2)N(C)CC3 [BS-TE-317]
IC50 [1]: 1.13 µg/mL (≈ 1.47 µM) | IC90 [1]: 4.75 µg/mL (≈ 6.17 µM) | IC50 [2]: 0.7 µg/mL (≈ 0.909 µM) | IC90 [2]: 1.11 µg/mL (≈ 1.44 µM) | IC50 [3]: 0.88 µg/mL (≈ 1.14 µM) | IC90 [3]: 3.57 µg/mL (≈ 4.64 µM) | IC50 [4]: 0.9 µg/mL (≈ 1.17 µM) | IC90 [4]: 2.1 µg/mL (≈ 2.73 µM) | IC50 [5]: 0.36 µg/mL (≈ 0.468 µM) | IC90 [5]: 1.58 µg/mL (≈ 2.05 µM) | IC50 [6]: 0.06 µg/mL (≈ 0.0779 µM) | IC90 [6]: 1.49 µg/mL (≈ 1.94 µM) | IC50 (PC-3 (prostate cancer)): 1.59 µg/mL (≈ 2.06 µM) | IC90 (PC-3 (prostate cancer)): 2.14 µg/mL (≈ 2.78 µM) | anti-PC-3 activity increase over tetrandrine (PC-3 (prostate cancer); compared with tetrandrine): ~4 fold | IC50 [7]: 1.4 µg/mL (≈ 1.82 µM) | IC90 [7]: 4.18 µg/mL (≈ 5.43 µM) | anti-PANC-1 activity increase over tetrandrine ([7]; compared with tetrandrine): 2 fold | IC50 [8]: 1.96 µg/mL (≈ 2.55 µM) | IC90 [8]: 4.25 µg/mL (≈ 5.52 µM) | IC50 (MG63 (osteosarcoma)): 1.3 µg/mL (≈ 1.69 µM) | IC90 (MG63 (osteosarcoma)): 1.9 µg/mL (≈ 2.47 µM) | IC50 [9]: 1.61 µg/mL (≈ 2.09 µM) | IC90 [9]: 7.4 µg/mL (≈ 9.61 µM) | IC50 [10]: 1.15 µg/mL (≈ 1.49 µM) | IC90 [10]: 2.49 µg/mL (≈ 3.23 µM) | IC50 (A549 (human lung cancer)): 2.2 µg/mL (≈ 2.86 µM) | IC90 (A549 (human lung cancer)): 5.8 µg/mL (≈ 7.53 µM) | IC50 [11]: 0.73 µg/mL (≈ 0.948 µM) | IC90 [11]: 1 µg/mL (≈ 1.3 µM) | IC50 [12]: 2 µg/mL (≈ 2.6 µM) | IC90 [12]: 8.1 µg/mL (≈ 10.5 µM) | IC50 [13]: 0.5 µg/mL (≈ 0.649 µM) | IC90 [13]: 1.81 µg/mL (≈ 2.35 µM) | IC50 [14]: 1.55 µg/mL (≈ 2.01 µM) | IC90 [14]: 3.72 µg/mL (≈ 4.83 µM) | IC50 [15]: 0.94 µg/mL (≈ 1.22 µM) | IC90 [15]: 2.02 µg/mL (≈ 2.62 µM) | IC50 [16]: 2.3 µg/mL (≈ 2.99 µM) | IC90 [16]: 3.5 µg/mL (≈ 4.55 µM) | IC50 [17]: 1.3 µg/mL (≈ 1.69 µM) | IC90 [17]: 3.2 µg/mL (≈ 4.16 µM)
